Laboratory results from patent US6071747A, “Immortalized cell lines from human adipose tissue, process for preparing same and applications thereof” (Centre National de la Recherche Scientifique-CNRS, priority 1995, dated 2000).
Where two headings read alike, the source gives them in different places.

Columns and labels:
[1] = tested on: β-adrenergic receptors coupled with adenylyl cyclase in PAZ-6 cells; conditions: for Accumulation of cAMP, pmol cAMP/mg protein: agonist 15 min at 37° C.
Method: (§1) The following method is used to determine the intracellular levels of cAMP:
(§2) The incubation buffer is removed and the cells are lyzed in 1 M NaOH for at least 20 min at 37° C. The lyzate is neutralized with 1 M acetic acid and centrifuged in a microcentrifuge at maximum speed for 5 min.
(§3) The supernatant is used to determine the cAMP (cAMP-^3 H kit, Amersham).

[2] = target: β-adrenergic receptors coupled with adenylyl cyclase in PAZ-6 cells (Homo sapiens, UniProt P13945); conditions: differentiated PAZ-6; 15 min
Sequence of β-adrenergic receptors coupled with adenylyl cyclase in PAZ-6 cells (Homo sapiens, UniProt P13945) (P13945 whole entry): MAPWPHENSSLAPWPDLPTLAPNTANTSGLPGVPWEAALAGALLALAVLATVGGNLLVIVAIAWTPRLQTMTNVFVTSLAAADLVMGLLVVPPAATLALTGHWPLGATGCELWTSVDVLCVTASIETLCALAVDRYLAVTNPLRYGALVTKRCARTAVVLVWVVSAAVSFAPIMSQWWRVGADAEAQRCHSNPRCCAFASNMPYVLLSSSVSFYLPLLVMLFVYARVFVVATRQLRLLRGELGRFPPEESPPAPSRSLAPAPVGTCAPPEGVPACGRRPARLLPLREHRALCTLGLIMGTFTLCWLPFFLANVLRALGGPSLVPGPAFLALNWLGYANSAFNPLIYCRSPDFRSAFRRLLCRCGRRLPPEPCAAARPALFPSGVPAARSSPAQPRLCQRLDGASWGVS
Method: as §1, §2, §3

[3] = tested on: differentiated PAZ-6 human adipocytes; assay: Lipolysis assay (glycerol release) on the PAZ-6 line; format: cell-based; conditions: differentiated PAZ-6 adipocytes; 2 hours at 37° C.; forskolin 10^-4 M, other agonists 10^-5 M; catecholamines with or without phentolamine 20 μg/ml
Method: The lipolysis test consists in measuring the amount of glycerol generated by the mature adipocytes treated with lipolytic ligands.
Monolayers of (differentiated) mature adipocytes in culture plates (6 wells) are washed and preincubated overnight in DMEM/Ham's F12 (1:1, v/v) comprising 1% of fatty acid-free BSA. The cells are then incubated in a Krebs-Ringer phosphate buffer (pH 7.4) comprising 2% of fatty acid-free BSA, 4.5 g/l of glucose, 50 μg/ml of Na2 S2 O5 and the β-adrenergic ligands, in a volume of 500 μl, for 2 hours at 37° C.
The glycerol level is measured on 100 μl of incubation medium by following the reduction of NAD to NADH at 340 nm in the presence of 10 μg/ml of glycerol dehydrogenase (derived from Enterobacter aerogenes, Boehringer Mannheim) in the following reaction buffer: K2 CO3 /NaHCO3 125 mM pH 10, NAD 3.5 mM and (NH4)2 SO4 330 mM.

[4] = tested on: mRNA coding for the Ob protein; conditions: rat adipocytes; cited from earlier work
[5] = tested on: β-adrenergic receptors (I-CYP binding sites) of PAZ-6 cells
Method: * determination of the binding sites for the β antagonist ligand iodocyanopindolol (I-CYP) in the PAZ-6 cell line
The cells are washed with PBS, incubated for 5 minutes at 37° C. with a solution of trypsin/2% EDTA and resuspended in DMEM supplemented with 10% (v/v) of horse serum.
After centrifugation at 450×g for 5 minutes at 4° C., the cellular residue is washed twice with PBS and the cells are then resuspended in PBS.
The actual binding assay itself is carried out for 90 min at 25° C. in a final volume of […] of PBS supplemented with 50 mg/ml of bovine serum albumin and 1 mM desipramine.
The reaction is stopped by rapid filtration through a Whatman GF/C glass fibre filter previously immersed for 30 min in a solution of PBS containing 0.3% of polyethyleneimine (to reduce the non-specific bindings).
The protein concentrations are determined by the method of M. Bradford (Anal. Biochem., 1976, 72, 248-256).
Bovine serum albumin is used as the standard and the cellular suspensions are homogenized with a Polytron homogenizer for a maximum of 5 seconds before the reaction.

PAZ-6 preadipocytes = assay: Differentiation of PAZ-6 preadipocytes into mature adipocytes; format: cell-based, human; conditions: in the presence of insulin and dexamethasone; 1 μM pioglitazone
Method: The cells are inoculated at a density of 10,000 cells/cm^2 and cultivated for 3 days in a medium containing 6% of foetal calf serum in order to obtain confluence; an ITT medium (DMEM/HAM F12 medium supplemented with biotin, pantothenate, Hepes, T3, penicillin and streptomycin, as defined above) is then added to said cells, said medium also containing 0.1 μM dexamethasone, 850 nM insulin, 1 μM pioglitazone and 0.25 mM IBMX (3-isobutyl-1-methylxanthine) for 4 days.

Ob mice = Ob mice with mutant gene; injected; cited from earlier work

In the case of `CC(C)(C)NCC(O)COc1cccc2[nH]c(=O)[nH]c12` (stereo not shown) [CGP 12177A], the “Accumulation of cAMP, pmol cAMP/mg protein” value (“Accumulation of cAMP” for short) ([1]; PAZ-6 differentiated) is reported as 323 ± 129 pmol cAMP/mg protein, the “Accumulation of cAMP” value ([1]; PAZ-6 not differentiated) is reported as 254 ± 167 pmol cAMP/mg protein and the “stimulation of the adenylyl cyclase” value ([1]; undifferentiated PAZ-6) is reported as “does not cause any significant stimulation”. For the same compound, the “stimulation (cAMP) compared with isoproterenol activating all β-AR sites” value [2] was 20% and the “lipolysis (glycerol generated relative to basal level, FIG. 4)” value [3] was “Lipolysis is also seen to be induced”.
In the case of `C[C@H](Cc1ccc2c(c1)OC(C(=O)O)(C(=O)O)O2)NC[C@H](O)c1cccc(Cl)c1` [CL 316,43], the “levels of mRNA coding for the Ob protein” value [4] is listed as “reduce substantially” and the “lipolysis (glycerol generated relative to basal level, FIG. 4)” value [3] is listed as “Lipolysis is also seen to be induced”.
With `Cc1ccc(OCC(O)C(C)NC(C)C)c2c1CCC2` (stereo not shown) [ICI 118551] the “reduction of the number of I-CYP binding sites” value [5] was 34%.
In the case of `O=C(O)COc1ccc(OCCNCC(O)COc2ccccc2)cc1` (stereo not shown) [ICI 201651], the “lipolysis (glycerol generated relative to basal level, FIG. 4)” value [3] is reported as “Lipolysis is also seen to be induced”.
In the case of `CNC[C@H](O)c1ccc(O)c(O)c1` [epinephrine], the “lipolysis (glycerol generated relative to basal level, FIG. 4)” value [3] is reported as “lipolysis induced”.
In the case of `C=C[C@@]1(C)CC(=O)[C@]2(O)[C@@]3(C)[C@@H](O)CCC(C)(C)[C@@H]3[C@H](O)[C@H](OC(C)=O)[C@@]2(C)O1` [forskolin], the “lipolysis (glycerol generated relative to basal level, FIG. 4)” value [3] is reported as “lipolysis induced”.
In the case of `CC(C)NCC(O)c1ccc(O)c(O)c1` (stereo not shown) [isoproterenol, isoprenaline], the “Accumulation of cAMP” value ([1]; PAZ-6 differentiated) is reported as 2083 pmol cAMP/mg protein and the “Accumulation of cAMP” value ([1]; PAZ-6 not differentiated) is reported as 4344 pmol cAMP/mg protein.
For `NC[C@H](O)c1ccc(O)c(O)c1` [norepinephrine], the “lipolysis (glycerol generated relative to basal level, FIG. 4)” value [3] was “lipolysis induced”.
In the case of `CCc1ccc(CCOc2ccc(CC3SC(=O)NC3=O)cc2)nc1` (stereo not shown) [pioglitazone], the “differentiation into mature adipocytes” value (PAZ-6 preadipocytes) is reported as “significantly increased”.
For “leptin: leptin (Ob protein), product of the Ob gene”, the appetite and obesity (Ob mice) is listed as “reduces appetite and hence obesity”.
